# US6906205B2, “Spiro and dispiro 1,2,4-trioxolane antimalarials” (Medicines for Malaria Venture MMV, priority 2002, dated 2005)
# Tests used:
# [1] = tested on: Schistosoma mansoni 21-day-old schistosomules; test: effect on 21-day-old schistosomules in mice; type: in vivo; details: single 200 mg/kg per os, female mice
# Protocol: All groups were killed 4 weeks after treatment and the liver and intestine were removed and separated. The liver and intestine were compressed and alive male and female worms could be seen and counted. The effect of the compounds was evaluated by mean total and female worm burden.
# [2] = tested on: Schistosoma mansoni adult schistosomes (49-day-old); test: effect on adult schistosomes (49-day-old) in mice; type: in vivo; details: single 400 mg/kg per os
# Protocol: Mice were infected with 100 Schistosoma mansoni cercariae […]. Each group was treated per os with OZ compounds at single doses of 200, 400, and 600 mg/kg. […] All groups were killed 4 weeks after treatment and the liver and intestine were removed and separated. The liver and intestine were compressed and alive male and female worms could be seen and counted.
# Schistosoma japonicum = test: effect in mice infected with Schistosoma japonicum; type: in vivo; details: age of worm 35 days, 400 mg/kg x 1
# P. berghei ANKA strain [3] = test: prophylactic activity, single 100 mg/kg po dose before infection; type: in vivo, Plasmodium berghei; details: reduction of parasitemia day 3 post-infection
# Protocol: (§1) Moro NMRI male mice (Fü Albino specific pathogen free) weighing 18±2 g were infected intravenously (i.v.) with 2×10^7 P. berghei ANKA strain-infected erythrocytes from donor mice on day 0 of the experiment. From donor mice with circa 30% parasitemia, heparinized blood was taken and diluted in physiological saline to 10^8 parasitized erythrocytes per ml. An aliquot (0.2 ml) of this suspension was injected i.v. into experimental and control groups of mice. In untreated control mice, parasitemia rose regularly to 40 to 50% by day 3 post-infection and 70 to 80% by day 4 post-infection. The mice died between days 5 and 7 post-infection. Throughout the experiments, mice were kept in groups of three or five animals in Makrolon type II cages in an air-conditioned animal room at 22 to 23° C. A diet with p-aminobenzoic acid (PABA) of 45 mg (NAFAG FUTTER© food N^o 9009 PAB-45) per kg of body weight, and tap water is available ad libitum.
# (§2) OZ compounds were prepared at an appropriate concentration, either as a solution or a suspension containing SSV (0.5% w/v CMC, 0.5% v/v benzyl alcohol, 0.4% v/v Tween 80, and 0.9% w/v sodium chloride in water). They were administered per os (p.o.) in a total volume of 0.01 ml per gram of mouse. The activity of the compound was determined by a variety of methods outlined in subsequent sections. Survival time was also recorded, and survival to day 30 post-infection was considered to be a cure.
# Prophylactic activities of the compounds were compared after administering po single dose of 100 mg/kg to different groups of five animals at various times before infection. All groups including an untreated control group, were then infected at the same time. Parasitemia was determined for each animal on day 3 post-infection, and percent of reduction of the level of parasitemia compared to levels for animals given no drug is determined.
# [4] = tested on: ANKA strain of Plasmodium berghei; test: single dose ED50/ED90/ED99 determinations in infected mice; type: in vivo; details: single dose po in SSV, mice, percent reduction in parasitemia on day three post-infection
# Method in brief: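 Mice (Moro SPF or NMRI, n=3 per group) infected with P. berghei ANKA received a single dose on day 1 post-infection, vehicle 0.5% CMC/0.5% benzyl alcohol/0.4% Tween 80/0.9% NaCl in water. Read-out is percent reduction in parasitemia on day 3; ED values by nonlinear fitting.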
# P. berghei ANKA strain [5] = test: treatment: 3x3 mg/kg and 3x1 mg/kg po divided doses in infected mice; type: in vivo, Plasmodium berghei; details: for Activity (%) p.o. SSV: percent reduction of parasitemia day 4
# Protocol: as §1, §2
# The second experiment consists of administration of divided 3×3 mg/kg and 3×1 mg/kg po doses administered on days 1, 2, and 3 post-infection. On day 4 post-infection, blood smears of all animals were prepared and stained with Giemsa. Parasitemia was determined microscopically, and the difference between the mean value of the control group (taken as 100%) and those of the experimental groups was calculated and expressed as percent reduction. Compounds were administered orally in the SSV vehicle.
# P. berghei ANKA strain [6] = test: treatment: 3x10 mg/kg p.o. divided dose vs 1x30 mg/kg po single dose in infected mice; type: in vivo, Plasmodium berghei; details: for Activity (%) p.o. SSV: percent reduction of parasitemia day 4; for Cures: survival to day 30 post-infection = cure, cured/treated mice
# Protocol: Moro NMRI male mice (Fü Albino specific pathogen free) weighing 18±2 g were infected intravenously (i.v.) with 2×10^7 P. berghei ANKA strain-infected erythrocytes from donor mice on day 0 of the experiment. From donor mice with circa 30% parasitemia, heparinized blood was taken and diluted in physiological saline to 10^8 parasitized erythrocytes per ml. An aliquot (0.2 ml) of this suspension was injected i.v. into experimental and control groups of mice. […] Throughout the experiments, mice were kept in groups of three or five animals in Makrolon type II cages in an air-conditioned animal room at 22 to 23° C.
# They were administered per os (p.o.) in a total volume of 0.01 ml per gram of mouse. The activity of the compound was determined by a variety of methods outlined in subsequent sections. Survival time was also recorded, and survival to day 30 post-infection was considered to be a cure.
# The first experiment conducted consisted of administration of a divided 3×10 mg/kg p.o. dose administered on days 1, 2, and 3 post-infection vs. a single 1×30 mg/kg po dose administered on day 1 post-infection. On day 4 post-infection, blood smears of all animals were prepared and stained with Giemsa. […] Compounds were administered orally in the SSV vehicle.
# [7] = single 100 mg/kg po 24 h before infection
# [8] = 3 × 1 mg/kg days 1, 2, 3 post-infection
# [9] = 3 × 3 mg/kg days 1, 2, 3 post-infection
# [10] = 1 × 30 mg/kg single dose day 1 post-infection
# [11] = 3 × 10 mg/kg days 1, 2, 3 post-infection
smiles,measurement,setting,value
"CO[C@H]1O[C@@H]2O[C@@]3(C)CC[C@H]4[C@H](C)CC[C@@H]([C@H]1C)[C@@]24OO3 [AM, artemether, reference compound]","% reduction of schistosomule growth at day 21 after per os application of 200 mg/kg, FWR (%)",[1],(n4) 85%
same,"% reduction of schistosomule growth at day 21 after per os application of 200 mg/kg, TWR (%)",[1],(n4) 85%
same,"% reduction of adult worms growth at day 49 after per os application of 400 mg/kg, TWR (%)",[2],53%
same,FWRR/% (female worm reduction rate),Schistosoma japonicum,71%
same,Mice without ♀ worm,Schistosoma japonicum,0/7
same,WRR/% (worm reduction rate),Schistosoma japonicum,62%
same,MTWB/x ± SD (mean total worm burden),Schistosoma japonicum; control 26.6 ± 4.2,10.1 ± 4.4
same,Prophylactic Activity (%),P. berghei ANKA strain [3]; [7],0%
same,Prophylactic Activity (%),P. berghei ANKA strain [3]; single 100 mg/kg po at 0 h,100%
same,ED90,[4],4.2 mg/kg
same,ED99,[4],7.1 mg/kg
same,Activity (%) p.o. SSV,P. berghei ANKA strain [5]; [8],51%
same,Activity (%) p.o. SSV,P. berghei ANKA strain [5]; [9],86%
CS(=O)(=O)O.NCC1CCC2(CC1)OOC1(O2)C2CC3CC(C2)CC1C3 (centres unmarked) [compound 209],Prophylactic Activity (%),P. berghei ANKA strain [3]; [7],100%
same,Prophylactic Activity (%),P. berghei ANKA strain [3]; single 100 mg/kg po 48 h before infection,99.9%
same,Prophylactic Activity (%),P. berghei ANKA strain [3]; single 100 mg/kg po 72 h before infection,99.92%
same,Prophylactic Activity (%),P. berghei ANKA strain [3]; single 100 mg/kg po at 0 h,100%
same,Survival (days) p.o. SSV,P. berghei ANKA strain [6]; [10],>30 days
same,Activity (%) p.o. SSV,P. berghei ANKA strain [6]; [10],100%
same,Cures,P. berghei ANKA strain [6]; 1 × 30 mg/kg,0/5
same,Survival (days) p.o. SSV,P. berghei ANKA strain [6]; [11],>30 days
same,Activity (%) p.o. SSV,P. berghei ANKA strain [6]; [11],100%
same,Survival (days) p.o. SSV,P. berghei ANKA strain [5]; [8],9.4 days
same,Activity (%) p.o. SSV,P. berghei ANKA strain [5]; [8],99.51%
same,Survival (days) p.o. SSV,P. berghei ANKA strain [5]; [9],16.4 days
same,Activity (%) p.o. SSV,P. berghei ANKA strain [5]; [9],100%
"CCN(CC)CCCC(C)Nc1ccnc2cc(Cl)ccc12 (centres unmarked) [CQ, chloroquine, reference compound]",Cures,P. berghei ANKA strain [6]; 1 × 30 mg/kg,0/5
same,Cures,P. berghei ANKA strain [6]; 3 × 10 mg/kg,0/5
same,ED99,[4],5.9 mg/kg
